The IC50 is the concentration that inhibits the measured activity by half.

Assay [1] has as its target PTGER2 (EP2) (Homo sapiens (Human), UniProt P43116). Nature of the assay: hEP2 b-arrestin assay (PathHunter HEK 293 PTGER2 b-arrestin cells). Type of assay: cell-based. The following applies: antagonistic activity, beta-arrestin assay; read-out: hEP2 b-arr IC50. On the procedure:
Plate is pre-incubated 15 minutes at 37° C. Then five microliters of PGE2 (final conc. 5 μM) are transferred into the assay plate. Plate is incubated 120 minutes at 37° C.
(each concentration is measured in duplicate)

Assay [2] deals with PTGER4 (EP4) (Homo sapiens (Human), UniProt P35408). Nature of the assay: cell-based.
Sequence of PTGER4 (EP4) (P35408 whole entry): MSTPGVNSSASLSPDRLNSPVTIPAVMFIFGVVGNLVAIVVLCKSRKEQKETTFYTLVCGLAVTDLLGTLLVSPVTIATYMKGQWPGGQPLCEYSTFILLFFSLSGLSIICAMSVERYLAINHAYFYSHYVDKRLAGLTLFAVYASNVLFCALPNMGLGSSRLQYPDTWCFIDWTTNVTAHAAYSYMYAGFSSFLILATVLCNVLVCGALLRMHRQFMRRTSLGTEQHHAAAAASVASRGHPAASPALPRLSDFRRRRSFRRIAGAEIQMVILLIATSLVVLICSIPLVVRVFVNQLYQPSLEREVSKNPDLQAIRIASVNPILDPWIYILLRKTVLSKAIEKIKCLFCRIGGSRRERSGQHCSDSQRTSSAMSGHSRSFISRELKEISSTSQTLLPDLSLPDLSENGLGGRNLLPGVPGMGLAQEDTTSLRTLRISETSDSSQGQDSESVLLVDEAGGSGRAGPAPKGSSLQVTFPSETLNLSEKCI

Sequence of PTGER2 (EP2) (P43116 whole entry): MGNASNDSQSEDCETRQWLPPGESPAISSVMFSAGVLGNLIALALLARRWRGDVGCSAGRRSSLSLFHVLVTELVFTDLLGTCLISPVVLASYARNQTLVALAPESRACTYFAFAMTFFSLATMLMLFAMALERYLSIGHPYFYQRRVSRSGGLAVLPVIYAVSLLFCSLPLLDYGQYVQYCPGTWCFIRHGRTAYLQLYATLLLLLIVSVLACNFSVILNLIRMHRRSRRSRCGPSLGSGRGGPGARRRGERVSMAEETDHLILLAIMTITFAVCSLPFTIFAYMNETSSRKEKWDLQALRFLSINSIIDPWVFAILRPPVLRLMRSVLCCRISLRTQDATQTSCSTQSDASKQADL

Consider `CCOc1cc2c(cc1CCNc1cc(-c3ccc(CC(=O)O)c(CC)c3)ncn1)OCCO2` [Example 512, (4-{6-[2-(7-Ethoxy-2,3-dihydro-benzo[1,4]dioxin-6-yl)-ethylamino]-pyrimidin-4-yl}-2-ethyl-phenyl)-acetic acid], for which the values for the half-maximal inhibitory concentration (IC50) in assay [1] and in assay [2] were 67 nM and 220 nM, respectively.
In the same order, the values of `CCCc1cc(-c2cc(NCCc3cc4c(cc3OCC)OCCO4)ncn2)ccc1C(C)C(=O)O` (racemic) [Example 487, rac-2-(4-{6-[2-(7-Ethoxy-2,3-dihydro-benzo[1,4]dioxin-6-yl)-ethylamino]-pyrimidin-4-yl}-2-propyl-phenyl)-propionic acid] are 59 nM and 136 nM.
In the same order, the values of `CCOc1cc(-c2cc(NCCc3cc(C(F)(F)F)c4sccc4c3)ncn2)sc1C(=O)O` [Example 488, 3-Ethoxy-5-{6-[2-(7-trifluoromethyl-benzo[b]thiophen-5-yl)-ethylamino]-pyrimidin-4-yl}-thiophene-2-carboxylic acid] are 723 nM and 45 nM.
The matching figures for `CCc1cc(-c2cc(NCCc3cc4c(cc3OC)OCCO4)ncn2)ccc1CC(=O)O` [Example 524, (2-Ethyl-4-{6-[2-(7-methoxy-2,3-dihydro-benzo[1,4]dioxin-6-yl)-ethylamino]-pyrimidin-4-yl}-phenyl)-acetic acid]: 231 nM and 257 nM.
For the compound `COc1cc2c(c(C)c1CCNc1cc(-c3ccc(C(=O)O)c(OC(C)C)c3)ncn1)OCCO2` [Example 432, 2-Isopropoxy-4-{6-[2-(7-methoxy-5-methyl-2,3-dihydro-benzo[1,4]dioxin-6-yl)-ethylamino]-pyrimidin-4-yl}-benzoic acid], the IC50 in assay [1] came out at 20 nM; in assay [2], 87 nM.
In the same order, the values of `COc1cc2ccccc2c(C)c1CCNc1cc(-c2ccc(CC(=O)O)c(OC(F)(F)F)c2)ncn1` [Example 500, (4-{6-[2-(3-Methoxy-1-methyl-naphthalen-2-yl)-ethylamino]-pyrimidin-4-yl}-2-trifluoromethoxy-phenyl)-acetic acid] are 88 nM and 99 nM.
With `CCOc1cc(-c2cc(NCCc3c(OC)cc4ccccc4c3C)ncn2)ccc1OCCC(=O)O` [Example 423, 3-(2-Ethoxy-4-{6-[2-(3-methoxy-1-methyl-naphthalen-2-yl)-ethylamino]-pyrimidin-4-yl}-phenoxy)-propionic acid], the 50% inhibitory concentration (IC50) in assay [1] is 49 nM; in assay [2], 10 nM.
In the same order, the values of `Cc1c(CCNc2cc(-c3ccc(C(=O)O)c(OC4CC4)c3)ncn2)ccc2c1OCCO2` [Example 519, 2-Cyclopropoxy-4-{6-[2-(5-methyl-2,3-dihydro-benzo[1,4]dioxin-6-yl)-ethylamino]-pyrimidin-4-yl}-benzoic acid] are 19 nM and 262 nM.
For `CCOc1cc(-c2cc(NCCc3ccc4ccccc4c3C)ncn2)ccc1Cc1noc(=O)[nH]1` [Example 566, 3-(2-Ethoxy-4-{6-[2-(1-methyl-naphthalen-2-yl)-ethylamino]-pyrimidin-4-yl}-benzyl)-[1,2,4]oxadiazol-5(4H)-one], the 50% inhibitory concentration (IC50) in assay [1] was 297 nM; in assay [2], 159 nM.
The matching figures for `COc1cc2c(c(C)c1CCNc1cc(-c3ccc(C(=O)O)c(OC4CCC4)c3)ncn1)OCCO2` [Example 396, 2-Cyclobutoxy-4-{6-[2-(7-methoxy-5-methyl-2,3-dihydro-benzo[1,4]dioxin-6-yl)-ethylamino]-pyrimidin-4-yl}-benzoic acid]: 2 nM and 44 nM.
In the same order, the values of `O=C(O)c1coc2cc(-c3cc(NCCc4cc(F)c5sccc5c4)ncn3)ccc12` [Example 549, 6-{6-[2-(7-Fluoro-benzo[b]thiophen-5-yl)-ethylamino]-pyrimidin-4-yl}-benzofuran-3-carboxylic acid] are 560 nM and 190 nM.
In the same order, the values of `CCOc1cc(-c2cc(NCCc3ccc4ccsc4c3C)ncn2)ccc1C(=O)O` [Example 470, 2-Ethoxy-4-{6-[2-(7-methyl-benzo[b]thiophen-6-yl)-ethylamino]-pyrimidin-4-yl}-benzoic acid] are 343 nM and 420 nM.
With `CCOc1cc(-c2cc(NCCc3cc(F)c4sccc4c3)ncn2)sc1C(=O)O` [Example 362, 3-Ethoxy-5-{6-[2-(7-fluoro-benzo[b]thiophen-5-yl)-ethylamino]-pyrimidin-4-yl}-thiophene-2-carboxylic acid], the IC50 in assay [1] was found to be 20 nM; in assay [2] it was 6 nM.
In the same order, the values of `COc1cc2sccc2cc1CCNc1cc(-c2ccc(CC(=O)O)c(OC)c2)ncn1` [Example 381, (2-Methoxy-4-{6-[2-(6-methoxy-benzo[b]thiophen-5-yl)-ethylamino]-pyrimidin-4-yl}-phenyl)-acetic acid] are 51 nM and 126 nM.
The matching figures for `CCCOc1cc(-c2cc(NCCc3cc4c(cc3OC)OCCO4)ncn2)ccc1CC(=O)O` [Example 480, (4-{6-[2-(7-Methoxy-2,3-dihydro-benzo[1,4]dioxin-6-yl)-ethylamino]-pyrimidin-4-yl}-2-propoxy-phenyl)-acetic acid]: 170 nM and 207 nM.
The matching figures for `CCOc1cc(-c2cc(NCCc3cc(F)c4sccc4c3)ncn2)ccc1OCCC(=O)O` [Example 422, 3-(2-Ethoxy-4-{6-[2-(7-fluoro-benzo[b]thiophen-5-yl)-ethylamino]-pyrimidin-4-yl}-phenoxy)-propionic acid]: 249 nM and 23 nM.
In the case of `CCCc1cc(-c2cc(NCCc3c(OC)cc4c(c3C)OCCO4)ncn2)ccc1CC(=O)O` [Example 397, (4-{6-[2-(7-Methoxy-5-methyl-2,3-dihydro-benzo[1,4]dioxin-6-yl)-ethylamino]-pyrimidin-4-yl}-2-propyl-phenyl)-acetic acid], the concentration for half-maximal inhibition (IC50) in assay [1] stood at 7 nM; in assay [2], 35 nM.
The matching figures for `COc1cc2c(cc1CCNc1cc(-c3ccc(CC(=O)O)c(CC(C)C)c3)ncn1)OCCO2` [Example 411, (2-Isobutyl-4-{6-[2-(7-methoxy-2,3-dihydro-benzo[1,4]dioxin-6-yl)-ethylamino]-pyrimidin-4-yl}-phenyl)-acetic acid]: 97 nM and 31 nM.
Consider `CCOc1cc(-c2cc(NCCc3cc(F)c4sccc4c3)ncn2)ccc1C(=O)C(=O)O` [Example 537, (2-Ethoxy-4-{6-[2-(7-fluoro-benzo[b]thiophen-5-yl)-ethylamino]-pyrimidin-4-yl}-phenyl)-oxo-acetic acid], for which the results for the half-inhibitory concentration (IC50) in assay [1] and in assay [2] were 670 nM and 76 nM, respectively.
The matching figures for `CCOc1cc2c(cc1CCNc1cc(-c3ccc(CC(=O)O)c(OC(F)(F)F)c3)ncn1)OCCO2` [Example 427, (4-{6-[2-(7-Ethoxy-2,3-dihydro-benzo[1,4]dioxin-6-yl)-ethylamino]-pyrimidin-4-yl}-2-trifluoromethoxy-phenyl)-acetic acid]: 17 nM and 90 nM.
The matching figures for `COc1cc2c(c(F)c1CCNc1cc(-c3ccc(CC(=O)O)c(OC(F)F)c3)ncn1)OCCO2` [Example 442, (2-Difluoromethoxy-4-{6-[2-(5-fluoro-7-methoxy-2,3-dihydro-benzo[1,4]dioxin-6-yl)-ethylamino]-pyrimidin-4-yl}-phenyl)-acetic acid]: 82 nM and 27 nM.
The matching figures for `CCCc1cc(-c2cc(NCCc3ccc4sccc4c3F)ncn2)ccc1C(=O)O` [Example 378, 4-{6-[2-(4-Fluoro-benzo[b]thiophen-5-yl)-ethylamino]-pyrimidin-4-yl}-2-propyl-benzoic acid]: 20 nM and 36 nM.
For `CCCc1cc(-c2cc(NCCc3c(OC)cc4ccccc4c3C)ncn2)ccc1C(=O)O` [Example 380, 4-{6-[2-(3-Methoxy-1-methyl-naphthalen-2-yl)-ethylamino]-pyrimidin-4-yl}-2-propyl-benzoic acid], the half-inhibitory concentration (IC50) came out at 16 nM in assay [1] and 17 nM in assay [2].
The matching figures for `COc1cc2c(cc1CCNc1cc(-c3ccc(CC(=O)O)c(C(F)(F)F)c3)ncn1)OCCO2` [Example 525, (4-{6-[2-(7-Methoxy-2,3-dihydro-benzo[1,4]dioxin-6-yl)-ethylamino]-pyrimidin-4-yl}-2-trifluoromethyl-phenyl)-acetic acid]: 160 nM and 349 nM.
Regarding `C#Cc1cc2c(cc1CCNc1cc(-c3ccc(CC(=O)O)c(OC)c3)ncn1)OCCO2` [Example 503, (4-{6-[2-(7-Ethynyl-2,3-dihydro-benzo[1,4]dioxin-6-yl)-ethylamino]-pyrimidin-4-yl}-2-methoxy-phenyl)-acetic acid], the figures for the concentration for half-maximal inhibition (IC50) in assay [1] and in assay [2] were 102 nM and 157 nM, respectively.
In the same order, the values of `CSc1cc(-c2cc(NCCc3cc(C)c4sccc4c3)ncn2)ccc1C(=O)O` [Example 477, 4-{6-[2-(7-Methyl-benzo[b]thiophen-5-yl)-ethylamino]-pyrimidin-4-yl}-2-methylsulfanyl-benzoic acid] are 316 nM and 210 nM.
In the same order, the values of `CCOc1cc(-c2cc(NCCc3cc(F)c4sccc4c3)ncn2)ccc1C(=O)NCCO` [Example 464, 2-Ethoxy-4-{6-[2-(7-fluoro-benzo[b]thiophen-5-yl)-ethylamino]-pyrimidin-4-yl}-N-(2-hydroxy-ethyl)-benzamide] are 300 nM and 87 nM.
The matching figures for `CCCc1cc(-c2cc(NCCc3cc(F)c4sccc4c3)ncn2)ccc1C(=O)NCC(C)(C)O` [Example 459, 4-{6-[2-(7-Fluoro-benzo[b]thiophen-5-yl)-ethylamino]-pyrimidin-4-yl}-N-(2-hydroxy-2-methyl-propyl)-2-propyl-benzamide]: 683 nM and 236 nM.
Take `COc1cc(-c2cc(NCCc3cc(F)c4sccc4c3)ncn2)ccc1C(=O)O` [Example 497, 4-{6-[2-(7-Fluoro-benzo[b]thiophen-5-yl)-ethylamino]-pyrimidin-4-yl}-2-methoxy-benzoic acid]: the concentration for half-maximal inhibition (IC50) in assay [1] turned out to be 449 nM; in assay [2], 443 nM.

The values above are taken from US11839613B2, “Pyrimidine derivatives as PGE2 receptor modulators” (IDORSIA PHARMACEUTICALS LTD, priority 2017, dated 2023).
